Experimental data taken from patent publication US10508109B2 (priority 2015, dated 2019).
Structures can show the parent of a compound that is named as a salt. Where two headings read alike, the source gives them in different places.

Experiments:
A549 = assay: Cell-based assay, anti-proliferative activity (Cell Counting Kit-8, 72 hours); conditions: Homo sapiens, read-out: IC50 (μM) A549
In short: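 Growth read-out after inhibitor treatment of plated cells; potency expressed as IC50.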

CCD-18Co = assay: as above; conditions: Homo sapiens, read-out: IC50 (μM) CCD-18Co
In short: (§1)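 Seed cells in 96-well plates; add serially diluted inhibitor (1.5625 to 100 micro-M plus vehicle); incubate 72 hours; quantify viable growth by CCK-8 and calculate IC50.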

HCT-116 = assay: as above; conditions: Homo sapiens, read-out: IC50 (μM) HCT-116
In short: as §1

PC14 = assay: as above; conditions: Homo sapiens, read-out: IC50 (μM) PC14
In short: as §1

HFL1 = assay: as above; conditions: Homo sapiens, read-out: IC50 (μM) HFL1
In short: as §1

SUV39H2 = SUV39H2 (Homo sapiens (Human), UniProt Q9H5I1); conditions: read-out: IC50 (μM) Suv 39H2 assay
Chain of SUV39H2 (Q9H5I1 whole entry): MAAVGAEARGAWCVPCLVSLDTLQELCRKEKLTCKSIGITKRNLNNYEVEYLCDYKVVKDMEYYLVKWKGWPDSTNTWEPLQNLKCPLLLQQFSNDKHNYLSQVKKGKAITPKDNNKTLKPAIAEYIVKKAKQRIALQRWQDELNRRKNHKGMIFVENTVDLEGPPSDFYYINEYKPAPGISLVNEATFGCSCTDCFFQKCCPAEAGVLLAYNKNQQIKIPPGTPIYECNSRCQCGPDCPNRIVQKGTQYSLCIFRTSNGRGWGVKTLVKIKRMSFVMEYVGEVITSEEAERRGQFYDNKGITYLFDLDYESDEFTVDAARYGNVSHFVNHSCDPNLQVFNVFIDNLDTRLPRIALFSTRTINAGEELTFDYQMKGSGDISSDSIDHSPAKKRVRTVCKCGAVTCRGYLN

[1] = A549 cells, 72 hours, Cell Counting Kit-8
[2] = CCD-18Co cells, 72 hours, Cell Counting Kit-8
[3] = HCT-116 cells, 72 hours, Cell Counting Kit-8
[4] = PC-14, PC14 cells, 72 hours, Cell Counting Kit-8
[5] = HFL1 cells, 72 hours, Cell Counting Kit-8

Row | SMILES | IC50 (A549; A549, 72 h) [µM] | IC50 (CCD-18Co; CCD-18Co, 72 h) [µM] | IC50 (HCT-116; HCT-116, 72 h) [µM] | IC50 (PC14; PC-14, 72 h) [µM] | IC50 (HFL1; HFL1, 72 h) [µM] | IC50 (SUV39H2; enzyme assay) [µM] | IC50 (A549; [1]) [µM] | IC50 (CCD-18Co; [2]) [µM] | IC50 (HCT-116; [3]) [µM] | IC50 (PC14; [4]) [µM] | IC50 (HFL1; [5]) [µM] | IC50 (SUV39H2) [µM]
1 | COc1cc(OC)c(-c2cn3ccc(N4CCN(P(=O)(OC)OC)CC4)nc3n2)cc1Cl [Example 218, dimethyl (4-(2-(5-chloro-2,4-dimethoxyphenyl)imidazo[1,2-a]pyrimidin-7-yl)piperazin-1-yl)phosphonate] | 6.5 | 10 | 5.6 | 3.4 | 10 | 0.0111 | – | – | – | – | – | –
2 | CCOP(=O)(CCN1CCN(c2ccn3cc(-c4cc(Cl)c(OC)cc4OCCCN(C)C)nc3c2)CC1)OCC [Example 219, diethyl (2-(4-(2-(5-chloro-2-(3-(dimethylamino)propoxy)-4-methoxyphenyl)-imidazo[1,2-a]pyridin-7-yl)piperazin-1-yl)ethyl)phosphonate] | – | – | – | – | – | 0.0201 | 10 | 10 | 10 | 7.6 | 7.4 | –
3 | COc1cc(OC)c(-c2cn3cc(Br)c(N4CCNCC4)nc3n2)cc1Cl [Example 220, 6-bromo-2-(5-chloro-2,4-dimethoxyphenyl)-7-(piperazin-1-yl)imidazo[1,2-a]pyrimidine] | – | – | – | – | – | 0.0262 | 2.6 | 3.1 | 2.4 | 2.4 | 3.1 | –
4 | COc1cc(OC)c(-c2cn3cc(NCCN)c(N4CCN(C(=O)OC(C)(C)C)CC4)nc3n2)cc1Cl [Example 221, tert-butyl 4-(6-((2-aminoethyl)amino)-2-(5-chloro-2,4-dimethoxyphenyl)imidazo[1,2-a]pyrimidin-7-yl)piperazine-1-carboxylate] | – | – | – | – | – | 0.0118 | 10 | 5.6 | 5.4 | 9.5 | 4.9 | –
5 | COc1cc(OC)c(-c2cn3cc(NCCN)c(N4CCN(S(=O)(=O)C5CC5)CC4)nc3n2)cc1Cl [Example 222, N^1-(2-(5-chloro-2,4-dimethoxyphenyl)-7-(4-(cyclopropylsulfonyl)-piperazin-1-yl)imidazo[1,2-a]pyrimidin-6-yl)ethane-1,2-diamine] | – | – | – | – | – | 0.00597 | 10 | 10 | 10 | 10 | 10 | –
6 | COc1cc(OC)c(-c2cn3cc(NCCN)c(N4CCNCC4)nc3n2)cc1Cl [Example 223, N^1-(2-(5-chloro-2,4-dimethoxy-phenyl)-7-(piperazin-1-yl)imidazo[1,2-a]pyrimidin-6-yl)ethane-1,2-diamine] | – | – | – | – | – | 0.00866 | 10 | 10 | 10 | 10 | 10 | –
7 | COc1cc(OC)c(-c2cn3cc(NCCNC(C)=O)c(N4CCOCC4)cc3n2)cc1Cl [Example 224, N-(2-((2-(5-chloro-2,4-dimethoxyphenyl)-7-morpholinoimidazo[1,2-a]-pyridin-6-yl)amino)ethyl)acetamide] | 10 | 10 | 10 | 10 | 10 | 0.0337 | – | – | – | – | – | –
8 | COc1cc(OC)c(-c2cn3cc(NCCN)c(N4CCN(S(=O)(=O)C5CC5)CC4)cc3n2)cc1Cl [Example 225, N^1-(2-(5-chloro-2,4-dimethoxyphenyl)-7-(4-(cyclopropylsulfonyl)-piperazin-1-yl)imidazo[1,2-a]pyridin-6-yl)ethane-1,2-diamine] | – | – | – | – | – | 0.0022 | 10 | 7.3 | 9.6 | 6.9 | 7.3 | –
9 | COc1cc(OCCCN(C)C)c(-c2cn3ccc(N4CCN(S(=O)(=O)C(C)C)CC4)nc3n2)cc1Cl [Example 226, 3-(4-chloro-2-(7-(4-(isopropylsulfonyl)piperazin-1-yl)imidazo[1,2-a]-pyrimidin-2-yl)-5-methoxyphenoxy)-N,N-dimethylpropan-1-amine] | – | – | – | – | – | 0.0655 | 10 | 10 | 7.8 | 5.5 | 8.9 | –
10 | COc1cc(OCCCN(C)C)c(-c2cn3ccc(N4CCN(S(=O)(=O)C5CCCC5)CC4)nc3n2)cc1Cl [Example 227, 3-(4-chloro-2-(7-(4-(cyclopentylsulfonyl)piperazin-1-yl)imidazo[1,2-a]-pyrimidin-2-yl)-5-methoxyphenoxy)-N,N-dimethylpropan-1-amine] | – | – | – | – | – | 0.0382 | 7 | 6.2 | 5.2 | 5.4 | 5.7 | –
11 | COc1cc(C)c(Cl)cc1-c1cn2ccc(N3CCNCC3)cc2n1 [Example 228, 2-(5-chloro-2-methoxy-4-methylphenyl)-7-(piperazin-1-yl)imidazo[1,2-a]pyridine hydrochloride] | 2.8 | 2.6 | 2 | 2.3 | 1.6 | – | – | – | – | – | – | 0.033
12 | COc1cc(C)c(Cl)cc1-c1cn2ccc(N3CCN(S(=O)(=O)C4CC4)CC3)cc2n1 [Example 229, 2-(5-chloro-2-methoxy-4-methylphenyl)-7-(4-(cyclopropylsulfonyl)-piperazin-1-yl)imidazo[1,2-a]pyridine] | – | – | – | – | – | 0.0775 | 1.9 | 3.8 | 2.1 | 0.8 | 2.3 | –
13 | COc1cc(C)c(Cl)cc1-c1cn2ccc(N3CCOCC3)cc2n1 [Example 230, 4-(2-(5-chloro-2-methoxy-4-methylphenyl)imidazo[1,2-a]pyridin-7-yl)morpholine] | – | – | – | – | – | 0.0183 | 4.4 | 3.5 | 4 | 1.6 | 2.8 | –
14 | COc1cc(OC)c(-c2cn3ccc(N4CCC(O)CC4)cc3n2)cc1Cl [Example 231, 1-(2-(5-chloro-2,4-dimethoxyphenyl)imidazo[1,2-a]pyridine-7-yl)piperidin-4-ol] | – | – | – | – | – | 0.00488 | 10 | 9.1 | 10 | 3.9 | 6.7 | –
15 | COc1cc(OC)c(-c2cn3ccc(N4CCN(C(=O)OC(C)(C)C)CC4)cc3n2)cc1Cl [Example 232, tert-butyl 4-[2-(5-chloro-2,4-dimethoxyphenyl)imidazo[1,2-a]pyridin-7-yl]piperazine-1-carboxylate] | – | – | – | – | – | 0.0291 | 1.5 | 1.5 | 1.7 | 0.73 | 1.1 | –
16 | COc1cc(Cl)c(Cl)cc1-c1cn2ccc(N3CCCC3)cc2n1 [Example 233, 2-(4,5-dichloro-2-methoxyphenyl)-7-(pyrrolidin-1-yl)imidazo[1,2-a]-pyridine] | – | – | – | – | – | 0.085 | 2.6 | 2.8 | 2.7 | 1.8 | 2.7 | –
17 | COc1cc(OCCN)c(-c2cn3ccc(N4CCN(S(=O)(=O)C5CC5)CC4)cc3n2)cc1Cl [Example 234, 2-(4-chloro-2-(7-(4-(cyclopropylsulfonyl)piperazin-1-yl)imidazo[1,2-a]-pyridin-2-yl)-5-methoxyphenoxy)ethanamine] | – | – | – | – | – | 0.0418 | 10 | 6.1 | 5.3 | 6.4 | 6.2 | –
18 | COc1cc(OC)c(-c2cn3ccc(N4CCNC(CO)C4)cc3n2)cc1Cl (stereo not drawn) [Example 235, (4-(2-(5-chloro-2,4-dimethoxyphenyl)imidazo[1,2-a]pyridin-7-yl)-piperazin-2-yl)methanol] | – | – | – | – | – | 0.0115 | 5.3 | 6.7 | 6.6 | 5.6 | 4.3 | –
19 | COc1cc(OC)c(-c2cn3ccc(N4CCN(S(=O)(=O)C5CC5)C(CO)C4)cc3n2)cc1Cl (stereo not drawn) [Example 236, (4-(2-(5-chloro-2,4-dimethoxyphenyl)imidazo[1,2-a]pyridin-7-yl)-1-(cyclopropylsulfonyl)piperazin-2-yl)methanol] | – | – | – | – | – | 0.00655 | 4.8 | 4 | 4.4 | 3.3 | 4.1 | –
20 | COC(=O)CCCN1CCN(c2ccn3cc(-c4cc(Cl)c(OC)cc4OC)nc3c2)CC1 [Example 237, methyl 4-(4-(2-(5-chloro-2,4-dimethoxyphenyl)imidazo[1,2-a]pyridine-7-yl)piperazin-1-yl)butanoate] | – | – | – | – | – | 0.0113 | 10 | 10 | 10 | 10 | 10 | –
21 | COc1cc(OC)c(-c2cn3ccc(N4CCN(C(=O)C5CC5)CC4)cc3n2)cc1Cl [Example 238, (4-(2-(5-chloro-2,4-dimethoxyphenyl)imidazo[1,2-a]pyridine-7-yl)piperazin-1-yl)(cyclopropyl)methanone] | – | – | – | – | – | 0.00416 | 2.5 | 3 | 2.9 | 1.6 | 2.4 | –
22 | COc1cc(OC)c(-c2cn3ccc(N4CCN(C5CCCC5)CC4)cc3n2)cc1Cl [Example 239, 2-(5-chloro-2,4-dimethoxyphenyl)-7-(4-cyclopentylpiperazin-1-yl)imidazo[1,2-a]pyridine] | – | – | – | – | – | 0.021 | 1.5 | 2.1 | 1.5 | 1.8 | 1.7 | –
